In paper PMC8022858, “Discovery of bone morphogenetic protein 7-derived peptide sequences that attenuate the human osteoarthritic chondrocyte phenotype” (Molecular Therapy. Methods & Clinical Development, 2021):

Assays:
[1] = test system: BRE reporter (SMAD1/5/8 dependent) in SW1353 chondrocytic cells; experiment: BRE firefly luciferase reporter assay; assay type: cell-based; conditions: 8 h peptide exposure, firefly normalized to Gaussia luciferase, relative to control (Figure 5B)
Description: Figure 5 Molecular characterization of peptides p[63−82] and p[113−132] (A) A pool of OA-HACs (n = 4 donors) was transfected with a scrambled siRNA or with an NKX3-2 siRNA (100 nM siRNA) and cultured for 24 h. Cultures were then exposed to peptide p[63−82] or p[113−132] (100 nM peptide). Samples were harvested 24 h later and analyzed for the expression of the indicated mRNAs (normalized to 28S rRNA). (B) SW1353 chondrocytic cells were transfected with BRE (SMAD1/5/8 reporter) or CAGA12 (SMAD2/3 reporter) firefly luciferase-reporter plasmids. A CMV-Gaussia plasmid was cotransfected as a transfection control. Cells were then cultured for 24 h and subsequently exposed to control, p[63−82], or p[113−132] for 8 h. Firefly and Gaussia bioluminescence were measured in cells and medium (respectively), and relative light units (RLUs) of firefly luciferase were normalized for the Gaussia luciferase signal. The normalized firefly luciferase signal of the control condition was set at 1, and peptide conditions were calculated relative to the control condition (FL/GL). Error bars represent mean ± SEM; statistical significance for peptide conditions versus siScrambled or siNKX3-2 (A) or control condition (B) as determined by unpaired two-tailed Student’s t test is represented as ∗p < 0.05, ∗∗p < 0.01, and ∗∗∗p < 0.001. […]

OA-HACs = experiment: Duration of chondrocyte phenotype modulation, single versus multiple peptide addition, 10-day follow-up; assay type: cell-based, human; conditions: 100 nM; for COL10A1 gene expression, continuous exposure / inhibition of MMP13 and COX-2 expression, continuous exposure / COL2A1 mRNA expression, continuous exposure / inhibition of COL10A1, MMP13, and COX-2 gene expression after single dose, up to and including day / expression of COL10A1, MMP13, and COX-2 at day 10, single dose / timing of action on COL2A1 after single dose: OA-HAC pool (n = 3 donors); for COL10A1 gene expression, continuous exposure / inhibition of MMP13 and COX-2 expression, continuous exposure: multiple addition; for COL10A1 gene expression, continuous exposure: 10 days (Figure 4B); for inhibition of MMP13 and COX-2 expression, continuous exposure: 10 days (Figures 4C, 4D); for COL2A1 mRNA expression, continuous exposure: peptide added every other day (multiple), 10 days (Figure 4A); for inhibition of COL10A1, MMP13, and COX-2 gene expression after single dose, up to and including day: single dose at start, sampled every 2 days; for timing of action on COL2A1 after single dose: compared with timing for COL10A1, MMP13, COX-2; for detectable changes in chondrocyte gene expression phenotype after a single exposure: OA-HAC pool
Description: The duration of chondrocyte phenotypic change induced by candidate peptides p[63−82] and p[113−132] was determined by exposing OA-HACs to a single dose of peptide or continuously keeping the peptides present during OA-HAC culture. In both cases, the phenotype of the OA-HACs was analyzed every other day during a 10-day follow-up. Non-OA-HACs were used as a reference for chondrocyte phenotype status.
Figure 4 Duration of chondrocyte phenotype modulation by BMP7-derived peptides A pool of OA-HACs (n = 3 donors) was cultured in the presence or absence of 100 nM peptides p[63−82] or p[113−132] and compared to a pool of human articular chondrocytes from a non-OA source. The medium was changed every 2 days. Peptides were added at the start of the experiment and subsequently at every medium change (multiple) or only at the start of the experiment and not during every subsequent medium change (single). At days 0, 2, 4, 6, 8, and 10 in culture, samples were harvested and analyzed for the expression of the indicated mRNAs by quantitative real-time PCR (normalized for 28S rRNA expression) (A) COL2A1 mRNA expression. (B) COL10A1 mRNA expression. (C) MMP13 mRNA expression. (D) COX-2 mRNA expression. In graphs, error bars represent mean ± SEM; data are presented relative to the “control OA” condition of each time point. Statistical differences were calculated to control conditions. Error bars represent mean ± SEM, and statistical significance for peptide conditions or control non-OA versus control OA condition as determined by unpaired two-tailed Student’s t test is represented as ∗p < 0.05, ∗∗p < 0.01, and ∗∗∗p < 0.001.
For the peptide-screening and alanine-scanning experiments, cDNA was prepared using the Cells-to-Ct kit (Invitrogen) according to the manufacturer’s protocol. For the other experiments, cells or homogenized tissues (Mikro-Dismembrator; Braun Biotech International) were lysed in TRIzol (Life Technologies) and RNA isolation and cDNA synthesis were performed as described earlier.[27]^,[57] Quantitative real-time PCR was performed using Takyon qPCR Master Mix plus blue for SYBR Green (Eurogentec). A CFX96 Real-Time PCR Detection System (Bio-Rad) was used for amplification: initial denaturation 95°C for 10 min, followed by 40 cycles of amplification (denaturing 15 s at 95°C and annealing 1 min at 60°C). Data were analyzed using the standard curve method, mRNA expression was normalized to a reference gene (28S rRNA), and gene expression was calculated as fold change as compared to control conditions.

Substance: H-AAYYSEGESAFPLNSYMNAT-OH [p[63−82]]
- BRE reporter activity [1]: induce
- COL10A1 gene expression, continuous exposure (OA-HACs): steadily decreased over time
- inhibition of MMP13 and COX-2 expression, continuous exposure (OA-HACs): continuously observed during the treatment period
- COL2A1 mRNA expression, continuous exposure (OA-HACs): overtime increasing
- inhibition of COL10A1, MMP13, and COX-2 gene expression after single dose, up to and including day (OA-HACs): up to 8 day
- expression of COL10A1, MMP13, and COX-2 at day 10, single dose (OA-HACs): indistinguishable from non-treated OA HACs
- timing of action on COL2A1 after single dose (OA-HACs): not detectable anymore from day 8 onward
- detectable changes in chondrocyte gene expression phenotype after a single exposure (OA-HACs): up to 8 days

Substance: H-SVLYFDDSSNVILKKYRNMV-OH [p[113−132]]
- BRE reporter activity [1]: induce
- COL10A1 gene expression, continuous exposure (OA-HACs): steadily decreased over time
- inhibition of MMP13 and COX-2 expression, continuous exposure (OA-HACs): continuously observed during the treatment period
- COL2A1 mRNA expression, continuous exposure (OA-HACs): overtime increasing
- inhibition of COL10A1, MMP13, and COX-2 gene expression after single dose, up to and including day (OA-HACs): up to 8 day
- expression of COL10A1, MMP13, and COX-2 at day 10, single dose (OA-HACs): indistinguishable from non-treated OA HACs
- timing of action on COL2A1 after single dose (OA-HACs): similar
- detectable changes in chondrocyte gene expression phenotype after a single exposure (OA-HACs): up to 8 days
